Source: patent US20250163061A1 (Bala Therapeutics, Inc., priority 2021, published 2025)

Tests used:
Format in all cases: cell-based
[1] = system: MV4-11; assay: MV4-11 cellular growth inhibition assay (CellTiter-Glo); conditions: Homo sapiens, 168 h, MV4-11 cells, 7 days of incubation
Method: (§1) HEK293 (Institute of Cytology Russian Academy of Science), MV4-11 (ATCC, CRL-9591), MOLM-13 (AcceGen, ABC-TC517S) were seeded at a density of 500 cells per well (HEK293) and 2000 cells per well (MV4-11, MOLM-13) in a 384-well clear bottom plate (Greiner Cat #781090) in 45 μl total volume of DMEM (PanEco, Cat #C420, Russia) or RPMI (PanEco, Cat #C330, Russia) with 10% FBS (HyClone Cat #SV30160.03). HEK293 were allowed to adhere overnight at 37° C., 5% CO2. 500× compounds solutions in DMSO (Sigma Cat #D2650) were prepared into Cmpnds plate (Diamond Well Plate, Axigen, Cat #P-384-120SQ-C-S) and DMSO only control was included. 1 μl of 500× compounds (Cmpnds plate) was added to 49 μl of culture medium into Dilution plate (Diamond Well Plate, Axigen, Cat #P-384-120SQ-C-S), mixed and then 5 μl of 10× compounds solutions were transferred to cells followed by centrifugation at 100 g for 1 min. Final DMSO concentration was 0.2%. After 3 days of incubation, 10 μl of 1× compounds were added to cells. After 7 days of incubation, 12 μl of CellTiter-Glo (Promega, CAT #G7572) were added to the cells, plate was centrifuged at 100 g for 1 min and luminescence signal was measured using Microplate Reader (CLARIOStar).

[2] = system: MOLM-13; assay: MOLM-13 cellular growth inhibition assay (CellTiter-Glo); conditions: Homo sapiens, 168 h, MOLM-13 cells, 7 days of incubation
Method: as §1

[3] = HEK293 cellular growth inhibition assay (CellTiter-Glo); conditions: human, HEK293 cells, 7 days of incubation
Method: as §1

Row | SMILES | CC50 [1] | CC50 [2] | CC50 at 7 days [3]
1 | Cc1c(CN2CCC3(CC2)CN(c2ncnc4ccc(CC(F)(F)F)cc24)C3)ccc2c1cc(C#N)n2CC1CNC(=O)C(C)O1 (stereo not drawn) [Compound 7, 4-Methyl-1-[(6-methyl-5-oxo-morpholin-2-yl)methyl]-5-[[2-[6-(2,2,2-trifluoroethyl)quinazolin-4-yl]-2,7-diazaspiro[3.5]nonan-7-yl]methyl]indole-2-carbonitrile] | ≤ 100 nM | 100 to 500 nM | 2000 to 5000 nM
2 | Cc1c(CN2CCC3(CC2)CN(c2ncnc4ccc(CC(F)(F)F)cc24)C3)ccc2[nH]c(C#N)cc12 [Compound 68, 4-Methyl-5-({2-[6-(2,2,2-trifluoroethyl)quinazolin-4-yl]-2,7-diazaspiro[3.5]non-7-yl}methyl)-1H-indole-2-carbonitrile] | 100 to 500 nM | 500 to 1000 nM | 2000 to 5000 nM
3 | Cc1c(CN2CCC3(CC2)CN(c2ncnc4ccc(CC(F)(F)F)cc24)C3)ccc2c1cc(C#N)n2CC12CC(NS(N)(=O)=O)(C1)C2 [Compound 61, 4-[7-[[2-cyano-4-methyl-1-[[3-(sulfamoylamino)-1-bicyclo[1.1.1]pentanyl]methyl]indol-5-yl]methyl]-2,7-diazaspiro[3.5]nonan-2-yl]-6-(2,2,2-trifluoroethyl)quinazoline] | ≤ 100 nM | 100 to 500 nM | 5000 to 10000 nM
4 | CC(=O)NC12CC(Cn3c(C#N)cc4c(C)c(CN5CCC6(CC5)CN(c5ncnc7ccc(CC(F)(F)F)cc57)C6)ccc43)(C1)C2 [Compound 59, N-[3-[[2-Cyano-4-methyl-5-[[2-[6-(2,2,2-trifluoroethyl)quinazolin-4-yl]-2,7-diazaspiro[3.5]nonan-7-yl]methyl]indol-1-yl]methyl]-1-bicyclo[1.1.1]pentanyl]acetamide] | ≤ 100 nM | ≤ 100 nM | 2000 to 5000 nM
5 | Cc1c(CN2CCC3(CC2)CN(c2ncnc4ccc(CC(F)(F)F)cc24)C3)ccc2c1cc(C#N)n2CC1CCNC(=O)CO1 (stereo not drawn) [Compound 2, 4-Methyl-1-[(3-oxo-1,4-oxazepan-7-yl)methyl]-5-[[2-[6-(2,2,2-trifluoroethyl)quinazolin-4-yl]-2,7-diazaspiro[3.5]nonan-7-yl]methyl]indole-2-carbonitrile] | 100 to 500 nM | 1000 to 5000 nM | 2000 to 5000 nM
6 | Cc1c(CN2CCC3(CC2)CN(c2ncnc4ccc(CC(F)(F)F)cc24)C3)ccc2c1cc(C#N)n2C[C@@H]1CNC(=O)CO1 [Compound 102, 4-Methyl-1-{[(2S)-5-oxomorpholin-2-yl]methyl}-5-({2-[6-(2,2,2-trifluoroethyl)quinazolin-4-yl]-2,7-diazaspiro[3.5]non-7-yl}methyl)-1H-indole-2-carbonitrile] | ≤ 100 nM | 100 to 500 nM | ≤ 2000 nM
7 | Cc1c(CN2CCC3(CC2)CN(c2ncnc4ccc(CC(F)(F)F)cc24)C3)ccc2c1cc(C#N)n2C[C@H]1CC[C@H](NS(C)(=O)=O)CC1 [Compound 40, N-(trans-4-{[2-Cyano-4-methyl-5-({2-[6-(2,2,2-trifluoroethyl)quinazolin-4-yl]-2,7-diazaspiro[3.5]non-7-yl}methyl)-1H-indol-1-yl]methyl}cyclohexyl)methanesulfonamide] | 100 to 500 nM | 1000 to 5000 nM | 10000 to 20000 nM
8 | C=CC(=O)N1CCN(C(C)Cn2c(C#N)cc3c(C)c(CN4CCC5(CC4)CN(c4ncnc6ccc(CC(F)(F)F)cc46)C5)ccc32)CC1 (stereo not drawn) [Compound 63, 1-[2-(4-Acryloylpiperazin-1-yl)propyl]-4-methyl-5-({2-[6-(2,2,2-trifluoroethyl)quinazolin-4-yl]-2,7-diazaspiro[3.5]non-7-yl}methyl)-1H-indole-2-carbonitrile] | 100 to 500 nM | 100 to 500 nM | 2000 to 5000 nM
9 | CS(=O)(=O)N1CCN(CCn2c(C#N)cc3cc(CN4CCC5(CC4)CN(c4ncnc6ccc(CC(F)(F)F)cc46)C5)ccc32)CC1 [Compound 91, 1-{2-[4-(Methylsulfonyl)piperazin-1-yl]ethyl}-5-({2-[6-(2,2,2-trifluoroethyl)quinazolin-4-yl]-2,7-diazaspiro[3.5]non-7-yl}methyl)-1H-indole-2-carbonitrile] | 500 to 1000 nM | 1000 to 5000 nM | 5000 to 10000 nM
